{"source": "ChEMBL document CHEMBL1201862", "about": "“PubChem BioAssay data set” (2004)", "assay_in_all_cases": "inhibition of tumour cell growth, NCI panel, 48 h", "key": {"[1]": {"tested_on": "KM-20L2"}, "[2]": {"tested_on": "LXFL 529"}, "[3]": {"tested_on": "BT-549"}, "[4]": {"tested_on": "DU-145"}, "[5]": {"tested_on": "Hs-578T"}, "[6]": {"tested_on": "MCF7"}, "[7]": {"tested_on": "NCI/ADR-RES"}, "[8]": {"tested_on": "PC-3"}, "[9]": {"tested_on": "RXF 631"}}, "note": "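Grown in 96-well plates, cells were treated for 48 hours with each compound at five concentrations. Insufficient inhibition: endpoint recorded as highest concentration tested. GI50 is the concentration that inhibits growth by half.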 The source made the active and inactive calls. Rule as the data show it: active = GI50 up to about 1.1 µM and inactive = higher."}
{"smiles": "CC(C)C(=O)N1C(=O)O[C@@H](c2ccccc2)[C@H]1C", "values": [{"measurement": "GI50", "setting": "[1]", "value": "> 100 µM (inactive)"}, {"measurement": "GI50", "setting": "[2]", "value": "> 100 µM (inactive)"}]}
{"smiles": "N#C[C@@H](c1nc2ccccc2s1)c1ncccc1[N+](=O)[O-]", "values": [{"measurement": "GI50", "setting": "[3]", "value": "5 µM (inactive)"}, {"measurement": "GI50", "setting": "[4]", "value": "6.34 µM (inactive)"}, {"measurement": "GI50", "setting": "[5]", "value": "5.55 µM (inactive)"}, {"measurement": "GI50", "setting": "[6]", "value": "5.11 µM (inactive)"}, {"measurement": "GI50", "setting": "[7]", "value": "6.46 µM (inactive)"}, {"measurement": "GI50", "setting": "[8]", "value": "5.16 µM (inactive)"}]}
{"smiles": "O=S(O)CCCCSSCCCCS(=O)(=O)S", "values": [{"measurement": "GI50", "setting": "[1]", "value": "> 100 µM (inactive)"}, {"measurement": "GI50", "setting": "[2]", "value": "22.2 µM (inactive)"}, {"measurement": "GI50", "setting": "[9]", "value": "51.9 µM (inactive)"}]}
{"smiles": "COC(=O)C(=O)C(C(=O)Nc1cccc(C)c1C)C1Sc2ccccc2NC1=O", "note": "(stereo not given)", "values": [{"measurement": "GI50", "setting": "[1]", "value": "8.67 µM (inactive)"}, {"measurement": "GI50", "setting": "[2]", "value": "> 25 µM (inactive)"}]}
{"smiles": "COc1cc(C2c3cc4c(cc3[C@@H](Nc3cccc([N+](=O)[O-])c3)C3COC(=O)[C@H]23)OCO4)cc(OC)c1O", "note": "(stereo not given in full)", "values": [{"measurement": "GI50", "setting": "[1]", "value": "3.64 µM (inactive)"}, {"measurement": "GI50", "setting": "[6]", "value": "0.944 µM (active)"}, {"measurement": "GI50", "setting": "[7]", "value": "8.07 µM (inactive)"}]}
{"smiles": "COC(=O)/C=C\\n1nc(Br)c(=O)[nH]c1=O", "values": [{"measurement": "GI50", "setting": "[3]", "value": "> 100 µM (inactive)"}, {"measurement": "GI50", "setting": "[4]", "value": "> 100 µM (inactive)"}, {"measurement": "GI50", "setting": "[5]", "value": "> 100 µM (inactive)"}, {"measurement": "GI50", "setting": "[6]", "value": "> 100 µM (inactive)"}, {"measurement": "GI50", "setting": "[7]", "value": "> 100 µM (inactive)"}, {"measurement": "GI50", "setting": "[8]", "value": "> 100 µM (inactive)"}]}
{"smiles": "COc1cc(S(=O)(=O)Nc2ccc(-c3csc(N4C(=O)C(C)SC4c4cccc(Oc5ccccc5)c4)n3)cc2)ccc1Cl", "note": "(stereo not given)", "values": [{"measurement": "GI50", "setting": "[3]", "value": "26.7 µM (inactive)"}, {"measurement": "GI50", "setting": "[4]", "value": "35.3 µM (inactive)"}, {"measurement": "GI50", "setting": "[5]", "value": "34 µM (inactive)"}, {"measurement": "GI50", "setting": "[6]", "value": "24.1 µM (inactive)"}, {"measurement": "GI50", "setting": "[7]", "value": "> 100 µM (inactive)"}, {"measurement": "GI50", "setting": "[8]", "value": "43.9 µM (inactive)"}]}
{"smiles": "O=S(O)c1cc(Cl)cc(Cl)c1OCc1ccccc1", "values": [{"measurement": "GI50", "setting": "[2]", "value": "> 100 µM (inactive)"}, {"measurement": "GI50", "setting": "[9]", "value": "> 100 µM (inactive)"}]}
{"smiles": "O=c1[nH]cnc2sc(=S)c3c(c12)CCC3", "values": [{"measurement": "GI50", "setting": "[4]", "value": "39 µM (inactive)"}, {"measurement": "GI50", "setting": "[5]", "value": "48.5 µM (inactive)"}, {"measurement": "GI50", "setting": "[6]", "value": "> 100 µM (inactive)"}, {"measurement": "GI50", "setting": "[7]", "value": "36.9 µM (inactive)"}, {"measurement": "GI50", "setting": "[8]", "value": "37 µM (inactive)"}]}
{"smiles": "COCC1N=C(c2cc(OC)c(OC)c(OC)c2-c2cc3c(cc2[C@@H](C)O)OCO3)O[C@H]1c1ccccc1", "note": "(stereo not given in full)", "values": [{"measurement": "GI50", "setting": "[1]", "value": "98.2 µM (inactive)"}, {"measurement": "GI50", "setting": "[6]", "value": "> 61.1 µM (inactive)"}, {"measurement": "GI50", "setting": "[7]", "value": "40.2 µM (inactive)"}]}
{"smiles": "Cc1cc(C)c(C2=NO[C@@H]3[C@H]2C(=O)C=C2N(Cc4ccccc4)CCO[C@@]23O)c(C)c1", "values": [{"measurement": "GI50", "setting": "[1]", "value": "> 100 µM (inactive)"}, {"measurement": "GI50", "setting": "[6]", "value": "> 100 µM (inactive)"}, {"measurement": "GI50", "setting": "[7]", "value": "> 100 µM (inactive)"}]}
{"smiles": "CC(=O)N(C(=O)CC(=O)N1N=C(C)C(/N=N/c2cccc([N+](=O)[O-])c2)C1=O)c1ccc(Cl)cc1", "note": "(stereo not given)", "values": [{"measurement": "GI50", "setting": "[3]", "value": "> 10 µM (inactive)"}, {"measurement": "GI50", "setting": "[4]", "value": "> 10 µM (inactive)"}, {"measurement": "GI50", "setting": "[5]", "value": "> 10 µM (inactive)"}, {"measurement": "GI50", "setting": "[6]", "value": "> 10 µM (inactive)"}, {"measurement": "GI50", "setting": "[7]", "value": "> 10 µM (inactive)"}, {"measurement": "GI50", "setting": "[8]", "value": "> 10 µM (inactive)"}]}
{"smiles": "CCOC(=O)C(Cc1c(-c2[nH]c3ccccc3c2CC(NC(=O)CNC(C)=O)C(=O)OCC)[nH]c2ccccc12)NC(=O)CNC(C)=O", "note": "(stereo not given)", "values": [{"measurement": "GI50", "setting": "[3]", "value": "> 100 µM (inactive)"}, {"measurement": "GI50", "setting": "[4]", "value": "> 100 µM (inactive)"}, {"measurement": "GI50", "setting": "[5]", "value": "32.6 µM (inactive)"}, {"measurement": "GI50", "setting": "[8]", "value": "> 100 µM (inactive)"}]}
{"smiles": "Clc1ccc(N/N=C(\\c2ccccc2)c2ccccn2)nc1", "values": [{"measurement": "GI50", "setting": "[3]", "value": "1.85 µM (inactive)"}, {"measurement": "GI50", "setting": "[4]", "value": "0.333 µM (active)"}, {"measurement": "GI50", "setting": "[5]", "value": "0.456 µM (active)"}, {"measurement": "GI50", "setting": "[6]", "value": "< 0.01 µM (active)"}, {"measurement": "GI50", "setting": "[7]", "value": "< 0.0165 µM (active)"}, {"measurement": "GI50", "setting": "[8]", "value": "0.0463 µM (active)"}]}
{"smiles": "O=S(O)c1cc(Cl)cc(Cl)c1O", "values": [{"measurement": "GI50", "setting": "[2]", "value": "> 100 µM (inactive)"}]}
{"smiles": "CC1CC=CC(O)C1", "note": "(stereo not given)", "values": [{"measurement": "GI50", "setting": "[1]", "value": "> 100 µM (inactive)"}, {"measurement": "GI50", "setting": "[6]", "value": "> 100 µM (inactive)"}, {"measurement": "GI50", "setting": "[7]", "value": "> 100 µM (inactive)"}]}
{"smiles": "OCC1C2C=CC(O2)[C@H]1CO", "note": "(stereo not given in full)", "values": [{"measurement": "GI50", "setting": "[1]", "value": "> 100 µM (inactive)"}, {"measurement": "GI50", "setting": "[2]", "value": "> 100 µM (inactive)"}, {"measurement": "GI50", "setting": "[9]", "value": "> 100 µM (inactive)"}]}
{"smiles": "CCOCc1cc(=O)c2c(O)cc3c(c2o1)CCC(C)(C)O3", "values": [{"measurement": "GI50", "setting": "[1]", "value": "> 100 µM (inactive)"}, {"measurement": "GI50", "setting": "[2]", "value": "> 100 µM (inactive)"}, {"measurement": "GI50", "setting": "[9]", "value": "> 100 µM (inactive)"}]}
{"smiles": "CN(C)CCNC(=O)c1ccc(Cl)c2ccc(-c3ccccc3)nc12", "values": [{"measurement": "GI50", "setting": "[1]", "value": "2.62 µM (inactive)"}, {"measurement": "GI50", "setting": "[6]", "value": "3.31 µM (inactive)"}, {"measurement": "GI50", "setting": "[7]", "value": "2.42 µM (inactive)"}]}
